pKi: −log10 of the molar value.
Target: T1, recombinant human NK3 receptor (Homo sapiens, UniProt P29371)
T1 construct: expressed in transfected cells; host or cells: HEK293 cells (transient expression), membranes
T1 sequence (P29371 1-465): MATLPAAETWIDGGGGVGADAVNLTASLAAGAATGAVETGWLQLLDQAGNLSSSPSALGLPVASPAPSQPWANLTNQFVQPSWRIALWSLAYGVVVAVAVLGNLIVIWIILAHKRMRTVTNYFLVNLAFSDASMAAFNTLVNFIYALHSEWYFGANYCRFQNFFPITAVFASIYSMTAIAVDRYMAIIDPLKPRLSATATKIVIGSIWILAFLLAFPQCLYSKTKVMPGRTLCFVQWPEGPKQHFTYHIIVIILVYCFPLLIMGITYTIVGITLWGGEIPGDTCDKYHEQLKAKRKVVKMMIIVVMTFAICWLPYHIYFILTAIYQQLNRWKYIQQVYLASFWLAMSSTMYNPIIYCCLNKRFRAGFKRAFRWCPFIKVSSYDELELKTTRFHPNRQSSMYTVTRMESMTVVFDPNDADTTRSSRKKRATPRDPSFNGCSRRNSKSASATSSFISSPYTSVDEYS
Assay: [3H]SR142801 competition binding assay
Details: hNK3 receptor binding, [3H]SR142801, membranes from HEK293 cells transiently expressing recombinant human NK3 receptor
Description: [^3H]SR142801 competition binding assay
hNK3 receptor binding experiment were performed using [^3H]SR142801 (Catalog No. TRK1035, specific activity: 74.0 Ci/mmol, Amersham, GE Healthcare UK limited, Buckinghamshire, UK) and membrane isolated from HEK293 cells transiently expressing recombinant human NK3 receptor. After thawing, the membrane homogenates were centrifuged at 48,000×g for 10 min at 4° C., the pellets were resuspended in the 50 mM Tris-HCl, 4 mM MnCl2, 1 μM phosphoramidon, 0.1% BSA binding buffer at pH 7.4 to a final assay concentration of 5 μg protein/well. […] At the end of the incubation, membranes were filtered onto unitfilter (96-well white microplate with bonded GF/C filter preincubated 1 h in 0.3% PEI+0.3% BSA, Packard BioScience, Meriden, Conn.) with a Filtermate 196 harvester (Packard BioScience) and washed 4 times with ice-cold 50 mM Tris-HCl, pH 7.4 buffer. Nonspecific binding was measured in the presence of 10 μM SB222200 for both radioligands. The radioactivity on the filter was counted (5 min) on a Packard Top-count microplate scintillation counter with quenching correction after addition of 45 μl of microscint 40 (Canberra Packard S. A., Zürich, Switzerland) and shaking for 1 h. Inhibition curves were fitted according to the Hill equation: y=100/(1+(x/IC50)^nH), where nH=slope factor using Excel-fit 4 software (Microsoft). IC50 values were derived from the inhibition curve and the affinity constant (Ki) values were calculated using the Cheng-Prussoff equation Ki=IC50/(1+[L]/KD) where [L] is the concentration of radioligand and KD is its dissociation constant at the receptor, derived from the saturation isotherm. All experiments were performed in duplicate and the mean±standard error (SEM) of the individual Ki values was calculated.

SMILES	pKi
CN(Cc1ccc(C(F)(F)F)c(F)c1)[C@H]1CN(C(=O)c2ccc(C#N)cc2)C[C@@H]1c1ccc(Cl)c(Cl)c1 (racemic) [Example 6, 4-{(3SR,4RS)-3-(3,4-Dichloro-phenyl)-4-[(3-fluoro-4-trifluoromethyl-benzyl)-methyl-amino]-pyrrolidine-1-carbonyl}-benzonitrile]	7.68
CN(Cc1ccc(C(F)(F)F)c(F)c1)[C@H]1CN(C(=O)c2cccc(C#N)c2)C[C@@H]1c1ccc(Cl)c(Cl)c1 (racemic) [Example 9, 3-{(3SR,4RS)-3-(3,4-Dichloro-phenyl)-4-[(3-fluoro-4-trifluoromethyl-benzyl)-methyl-amino]-pyrrolidine-1-carbonyl}-benzonitrile]	7.32
CN(Cc1ccc(C(F)(F)F)c(F)c1)[C@H]1CN(C(=O)c2ccc3c(c2)OCO3)C[C@@H]1c1ccc(Cl)c(Cl)c1 (racemic) [Example 17, Benzo[1,3]dioxol-5-yl-{(3SR,4RS)-3-(3,4-dichloro-phenyl)-4-[(3-fluoro-4-trifluoromethyl-benzyl)-methyl-amino]-pyrrolidin-1-yl}-methanone]	7.42
CN(Cc1ccc(C#N)c(F)c1)[C@H]1CN(C(=O)c2ccc(C#N)cc2)C[C@@H]1c1ccc(Cl)c(Cl)c1 (racemic) [Example 18, 4-({[(3RS,4SR)-1-(4-Cyano-benzoyl)-4-(3,4-dichloro-phenyl)-pyrrolidin-3-yl]-methyl-amino}-methyl)-2-fluoro-benzonitrile]	7.38
CN(Cc1ccc(C(F)(F)F)c(F)c1)[C@H]1CN(C(=O)c2ccc(C#N)cc2F)C[C@@H]1c1ccc(Cl)c(Cl)c1 (racemic) [Example 19, 4-{(3SR,4RS)-3-(3,4-Dichloro-phenyl)-4-[(3-fluoro-4-trifluoromethyl-benzyl)-methyl-amino]-pyrrolidine-1-carbonyl}-3-fluoro-benzonitrile]	7.89
CN(Cc1ccc(C(F)(F)F)c(F)c1)[C@H]1CN(C(=O)c2cc(S(C)(=O)=O)ccc2F)C[C@@H]1c1ccc(Cl)c(Cl)c1 (racemic) [Example 20, {(3SR,4RS)-3-(3,4-Dichloro-phenyl)-4-[(3-fluoro-4-trifluoromethyl-benzyl)-methyl-amino]-pyrrolidin-1-yl}-(2-fluoro-5-methanesulfonyl-phenyl)-methanone]	7.38
CN(Cc1ccc(C(F)(F)F)c(F)c1)[C@H]1CN(C(=O)c2ccc(S(C)(=O)=O)cc2)C[C@@H]1c1ccc(Cl)c(Cl)c1 (racemic) [Example 22, {(3SR,4RS)-3-(3,4-Dichloro-phenyl)-4-[(3-fluoro-4-trifluoromethyl-benzyl)-methyl-amino]-pyrrolidin-1-yl}-(4-methanesulfonyl-phenyl)-methanone]	7.52
Cc1cc(C(=O)N2C[C@H](c3ccc(Cl)c(Cl)c3)[C@@H](N(C)Cc3ccc(C(F)(F)F)c(F)c3)C2)ccc1C#N (racemic) [Example 23, 4-{(3SR,4RS)-3-(3,4-Dichloro-phenyl)-4-[(3-fluoro-4-trifluoromethyl-benzyl)-methyl-amino]-pyrrolidine-1-carbonyl}-2-methyl-benzonitrile]	8.18
CC(=O)c1ccc(C(=O)N2C[C@H](c3ccc(Cl)c(Cl)c3)[C@@H](N(C)Cc3ccc(C(F)(F)F)c(F)c3)C2)cc1 (racemic) [Example 24, 1-(4-{(3SR,4RS)-3-(3,4-Dichloro-phenyl)-4-[(3-fluoro-4-trifluoromethyl-benzyl)-methyl-amino]-pyrrolidine-1-carbonyl}-phenyl)-ethanone]	8.17
Cc1ccc(C(=O)N2C[C@H](c3ccc(Cl)c(Cl)c3)[C@@H](N(C)Cc3ccc(C(F)(F)F)c(F)c3)C2)cn1 (racemic) [Example 25, {(3SR,4RS)-3-(3,4-Dichloro-phenyl)-4-[(3-fluoro-4-trifluoromethyl-benzyl)-methyl-amino]-pyrrolidin-1-yl}-(6-methyl-pyridin-3-yl)-methanone]	7.82
CN(Cc1ccc(C(F)(F)F)c(F)c1)[C@H]1CN(C(=O)c2ccc(C#N)nc2)C[C@@H]1c1ccc(Cl)c(Cl)c1 (racemic) [Example 26, 5-{(3SR,4RS)-3-(3,4-Dichloro-phenyl)-4-[(3-fluoro-4-trifluoromethyl-benzyl)-methyl-amino]-pyrrolidine-1-carbonyl}-pyridine-2-carbonitrile]	7.83
CN(Cc1ccc(C(F)(F)F)c(F)c1)[C@H]1CN(C(=O)c2ccc(N3CCOCC3)nc2)C[C@@H]1c1ccc(Cl)c(Cl)c1 (racemic) [Example 27, {(3SR,4RS)-3-(3,4-Dichloro-phenyl)-4-[(3-fluoro-4-trifluoromethyl-benzyl)-methyl-amino]-pyrrolidin-1-yl}-(6-morpholin-4-yl-pyridin-3-yl)-methanone]	8.24
CN(Cc1ccc(C(F)(F)F)c(F)c1)[C@H]1CN(C(=O)c2ccc(F)nc2)C[C@@H]1c1ccc(Cl)c(Cl)c1 (racemic) [Example 28, {(3SR,4RS)-3-(3,4-Dichloro-phenyl)-4-[(3-fluoro-4-trifluoromethyl-benzyl)-methyl-amino]-pyrrolidin-1-yl}-(6-fluoro-pyridin-3-yl)-methanone]	7.45

The remaining lines, values ahead:

pKi	SMILES
8.08	COc1ccc(C(=O)N2C[C@H](c3ccc(Cl)c(Cl)c3)[C@@H](N(C)Cc3ccc(C(F)(F)F)c(F)c3)C2)cn1 (racemic) [Example 29, {(3SR,4RS)-3-(3,4-Dichloro-phenyl)-4-[(3-fluoro-4-trifluoromethyl-benzyl)-methyl-amino]-pyrrolidin-1-yl}-(6-methoxy-pyridin-3-yl)-methanone]
8.55	CN(Cc1ccc(C(F)(F)F)c(F)c1)[C@H]1CN(C(=O)c2ccc(-n3cccn3)nc2)C[C@@H]1c1ccc(Cl)c(Cl)c1 (racemic) [Example 30, {(3SR,4RS)-3-(3,4-Dichloro-phenyl)-4-[(3-fluoro-4-trifluoromethyl-benzyl)-methyl-amino]-pyrrolidin-1-yl}-(6-pyrazol-1-yl-pyridin-3-yl)-methanone]
7.95	Cc1cc(C(=O)N2C[C@H](c3ccc(Cl)c(Cl)c3)[C@@H](N(C)Cc3ccc(C(F)(F)F)c(F)c3)C2)ccn1 (racemic) [Example 33, {(3SR,4RS)-3-(3,4-Dichloro-phenyl)-4-[(3-fluoro-4-trifluoromethyl-benzyl)-methyl-amino]-pyrrolidin-1-yl}-(2-methyl-pyridin-4-yl)-methanone]
8.05	CN(Cc1ccc(C(F)(F)F)c(F)c1)[C@H]1CN(C(=O)c2ccc(N3CCOCC3)cc2)C[C@@H]1c1ccc(Cl)c(Cl)c1 (racemic) [Example 38, {(3SR,4RS)-3-(3,4-Dichloro-phenyl)-4-[(3-fluoro-4-trifluoromethyl-benzyl)-methyl-amino]-pyrrolidin-1-yl}-(4-morpholin-4-yl-phenyl)-methanone]
8.57	CN(Cc1ccc(C(F)(F)F)c(F)c1)[C@H]1CN(C(=O)c2ccc(-n3cncn3)cc2)C[C@@H]1c1ccc(Cl)c(Cl)c1 (racemic) [Example 40, {(3SR,4RS)-3-(3,4-Dichloro-phenyl)-4-[(3-fluoro-4-trifluoromethyl-benzyl)-methyl-amino]-pyrrolidin-1-yl}-(4-[1,2,4]triazol-1-yl-phenyl)-methanone]
7.97	CN(Cc1ccc(C(F)(F)F)c(F)c1)[C@H]1CN(C(=O)c2ccc(-n3ccnc3)cc2)C[C@@H]1c1ccc(Cl)c(Cl)c1 (racemic) [Example 41, {(3SR,4RS)-3-(3,4-Dichloro-phenyl)-4-[(3-fluoro-4-trifluoromethyl-benzyl)-methyl-amino]-pyrrolidin-1-yl}-(4-imidazol-1-yl-phenyl)-methanone]
7.47	CN(Cc1ccc(C(F)(F)F)c(F)c1)[C@H]1CN(C(=O)c2ccc(N3CCCS3(=O)=O)cc2)C[C@@H]1c1ccc(Cl)c(Cl)c1 (racemic) [Example 42, {(3SR,4RS)-3-(3,4-Dichloro-phenyl)-4-[(3-fluoro-4-trifluoromethyl-benzyl)-methyl-amino]-pyrrolidin-1-yl}-[4-(1,1-dioxo-1-6-isothiazolidin-2-yl)-phenyl]-methanone]
8.29	CN(Cc1ccc(C(F)(F)F)c(F)c1)[C@H]1CN(C(=O)c2ccc(-c3ccccn3)cc2)C[C@@H]1c1ccc(Cl)c(Cl)c1 (racemic) [Example 43, {(3SR,4RS)-3-(3,4-Dichloro-phenyl)-4-[(3-fluoro-4-trifluoromethyl-benzyl)-methyl-amino]-pyrrolidin-1-yl}-(4-pyridin-2-yl-phenyl)-methanone]
